The supplement of paper PMC4932681

How the values were obtained:
Assay in all cases: viability inhibition at highest dose (% inhibition); higher = more growth inhibition
ZR-75-1 Tam1 = details: 4-OH-tamoxifen in medium 1 µM; 72 h
Procedure: (§1)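 Percent inhibition of viability (CellTiter-Glo, 72 h) at the highest tested concentration (D5), normalised to DMSO (0%) and 100 µM benzethonium chloride (100%). Resistant lines and the 'in 1µM tamoxifen' arms were tested in 1 µM 4-OH-tamoxifen.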

T-47D Tam2 = details: 4-OH-tamoxifen in medium 1 µM; 72 h
Procedure: as §1

MCF-7 = details: 72 h
Procedure: as §1

ZR-75-1 Tam2 = details: 4-OH-tamoxifen in medium 1 µM; 72 h
Procedure: as §1

T-47D = details: 72 h
Procedure: as §1

BT-474 Tam2 = details: 4-OH-tamoxifen in medium 1 µM; 72 h
Procedure: as §1

ZR-75-1 = details: 72 h
Procedure: as §1

T-47D Tam1 = details: 4-OH-tamoxifen in medium 1 µM; 72 h
Procedure: as §1

BT-474 Tam1 = details: 4-OH-tamoxifen in medium 1 µM; 72 h
Procedure: as §1

BT-474 = details: 72 h
Procedure: as §1

MCF-7 Tam1 = details: 4-OH-tamoxifen in medium 1 µM; 72 h
Procedure: as §1

Row | SMILES | viability inhibition at highest dose (ZR-75-1 Tam1) | viability inhibition at highest dose (T-47D Tam2) | viability inhibition at highest dose (MCF-7; 4-OH-tamoxifen in medium 0 µM) | viability inhibition at highest dose (MCF-7; 4-OH-tamoxifen in medium 1 µM) | viability inhibition at highest dose (ZR-75-1 Tam2) | viability inhibition at highest dose (T-47D; 4-OH-tamoxifen in medium 0 µM) | viability inhibition at highest dose (T-47D; 4-OH-tamoxifen in medium 1 µM) | viability inhibition at highest dose (BT-474 Tam2) | viability inhibition at highest dose (ZR-75-1; 4-OH-tamoxifen in medium 0 µM) | viability inhibition at highest dose (ZR-75-1; 4-OH-tamoxifen in medium 1 µM) | viability inhibition at highest dose (T-47D Tam1) | viability inhibition at highest dose (BT-474 Tam1) | viability inhibition at highest dose (BT-474; 4-OH-tamoxifen in medium 0 µM) | viability inhibition at highest dose (BT-474; 4-OH-tamoxifen in medium 1 µM) | viability inhibition at highest dose (MCF-7 Tam1)
1 | CO[C@H]1C[C@@H]2CC[C@@H](C)[C@@](O)(O2)C(=O)C(=O)N2CCCC[C@H]2C(=O)O[C@H]([C@H](C)C[C@@H]2CC[C@@H](O)[C@H](OC)C2)CC(=O)[C@H](C)/C=C(\C)[C@@H](O)[C@@H](OC)C(=O)[C@H](C)C[C@H](C)/C=C/C=C/C=C/1C [Sirolimus (Rapamycin)] (drug 1000 nM) | 33.3 | 26.9 | 45.5 | 35.8 | 36.3 | 28.5 | 13.8 | 24.1 | 38.1 | 31 | 34.8 | 21.7 | 17.8 | 13.2 | 7.86
2 | O=C(NC[C@H](O)CO)c1ccncc1Nc1ccc(I)cc1F (drug 10000 nM) | 2.34 | 34 | 35.6 | 19.8 | 7.84 | 10.4 | -8.51 | 6.28 | 7.13 | 10 | 35.6 | 13.6 | 17.2 | 48 | 12.7
3 | C1CN1c1nc(N2CC2)nc(N2CC2)n1 [Triethylenemelamine] (drug 10000 nM) | -3.65 | 13 | 1.71 | -13.7 | -10 | -11.6 | -10.3 | -2.97 | -18.1 | -2.81 | 19.6 | 7.12 | -11.5 | -8.95 | -10.7
4 | CN(C)c1nc(N(C)C)nc(N(C)C)n1 [Altretamine] (drug 10000 nM) | 0.782 | 5.82 | -20.5 | 10.6 | -11.8 | -20.9 | 18.5 | 0.399 | -19.3 | -9.44 | 52.4 | 4.18 | -14.8 | -18.3 | -9.06
5 | CS(=O)(=O)OCCCCOS(C)(=O)=O [Busulfan] (drug 100000 nM) | -5.35 | 6.32 | -5.52 | 10.5 | -11.6 | -1.41 | -0.37 | 1 | 1.38 | -1.26 | 1.25 | -2.76 | 1.99 | 8.07 | -1.89
6 | C/C(=C\c1csc(C)n1)[C@@H]1C[C@@H]2O[C@]2(C)CCC[C@H](C)[C@H](O)[C@@H](C)C(=O)C(C)(C)[C@@H](O)CC(=O)N1 [Ixabepilone] (drug 1000 nM) | -3.74 | 33.3 | 33.8 | 26.2 | -5.09 | 45.1 | 23 | -14.8 | -11.9 | -5.49 | 30 | 4.12 | -8.54 | 41 | -16.3
7 | CC(C)C(=O)Nc1ccc([N+](=O)[O-])c(C(F)(F)F)c1 [Flutamide] (drug 10000 nM) | -0.0944 | 11.2 | -18 | 15.9 | -5.1 | 0.571 | -1.73 | 6.26 | -10.7 | -3.17 | 6.02 | 6.08 | -10.2 | -11.4 | -3.99
8 | C[C@]12C=CC(=O)C=C1CC[C@@H]1[C@@H]2[C@@H](O)C[C@@]2(C)[C@H]1CC[C@]2(O)C(=O)CO [Prednisolone] (drug 10000 nM) | -0.584 | 6.88 | 12 | 17.2 | 9.43 | -5.27 | -8.96 | -3.77 | -7.97 | 0.573 | 2 | -1.37 | -0.102 | -6.44 | 0.119
9 | COCC1(CO)C(=O)C2CCN1CC2 (stereo not given) [Prima-1 Met] (drug 10000 nM) | -1.64 | -9.64 | 10.8 | 3.83 | 17.7 | -7.38 | -11.1 | 0.869 | -1.59 | -9.16 | 1.75 | -5.47 | -9.27 | -13.3 | -10.1
10 | CNC(=O)c1cc(Oc2ccc(NC(=O)Nc3ccc(Cl)c(C(F)(F)F)c3)cc2)ccn1 [Sorafenib] (drug 1000 nM) | -2.44 | 4.98 | 4.04 | 5.41 | -2.71 | -13.3 | -7.58 | -4.18 | -7.83 | 4.52 | -11.3 | 12.1 | -8.19 | -5.87 | -2.56
11 | O=C(Nc1ccncc1)C(=O)c1cn(Cc2ccc(Cl)cc2)c2ccccc12 [Indibulin] (drug 10000 nM) | 10.6 | 4.46 | 36.4 | 33.7 | 11.1 | 2.62 | 12 | 8.07 | 9.44 | -3.66 | 13 | 7.16 | 7.67 | 28.2 | -9.03
12 | CC(C)(C)NC(=O)[C@H]1CC[C@H]2[C@@H]3CC[C@H]4NC(=O)C=C[C@]4(C)[C@H]3CC[C@]12C [Finasteride] (drug 10000 nM) | -2.42 | 18 | -0.974 | 6.29 | 4.5 | -5.04 | -8.61 | 19.1 | -8.28 | 7.55 | 14.8 | 27.2 | -6.68 | -0.99 | 3.61
13 | Cc1ccc(Nc2nccc(N(C)c3ccc4c(C)n(C)nc4c3)n2)cc1S(N)(=O)=O [Pazopanib] (drug 10000 nM) | 6.13 | 23.6 | 8.65 | 16.4 | 10.8 | 12.7 | -6.23 | 7.37 | -3.01 | 11.1 | 4.97 | 23.6 | -2.15 | -6.21 | 1.65
14 | C=CCN(/C=C1/C(=O)O[C@H](COC)[C@@]2(C)C1=C(O)C(=O)C1=C2[C@H](OC(C)=O)C[C@]2(C)C(=O)CC[C@@H]12)CC=C [Sonolisib (PX-866)] (drug 10000 nM) | 15.2 | 9.95 | -6.01 | 11.3 | 13.3 | -6.68 | 0.837 | -8.14 | 7.54 | 18.1 | 9.15 | -5.08 | -6.97 | -17.3 | -2.1
15 | Cc1cc2c(F)c(Oc3ncnn4cc(OC[C@@H](C)O)c(C)c34)ccc2[nH]1 [Brivanib] (drug 1000 nM) | -6.33 | -3.24 | -12.6 | -7.3 | 3.72 | -14.5 | -3.49 | 7.57 | -7.74 | -7.64 | 2.73 | 6.47 | -13 | -17.5 | -13
16 | Clc1ccc(C(c2ccccc2Cl)C(Cl)Cl)cc1 (stereo not given) [Mitotane] (drug 10000 nM) | 1.3 | 8.17 | -8.27 | 0.312 | -0.971 | -16.5 | -15.2 | 3.56 | -16.5 | -2.85 | 8.29 | 4.23 | -9.37 | -3.54 | -2.99
17 | Cc1c(C(=O)Nc2ccc(N3C[C@@H](C)O[C@@H](C)C3)nc2)cccc1-c1ccc(OC(F)(F)F)cc1 [Erismodegib (NVP-LDE225)] (drug 10000 nM) | 13.1 | 19.2 | 23.2 | 14.6 | 7.11 | 19.8 | 8.8 | 19 | -0.79 | 17.1 | 4.09 | 15.9 | 18 | 41.1 | 15.1
18 | CCC/C=C/C=C/C(=O)O[C@H]1/C(=C/C(=O)OC)C[C@H]2C[C@H]([C@@H](C)O)OC(=O)C[C@H](O)C[C@@H]3C[C@H](OC(C)=O)C(C)(C)[C@](O)(C[C@@H]4C/C(=C/C(=O)OC)C[C@H](/C=C/C(C)(C)[C@]1(O)O2)O4)O3 [Bryostatin 1] (drug 100 nM) | 10.2 | -13.3 | 3.91 | 14.2 | 3.49 | -5.82 | -5.94 | -0.0992 | 12.6 | -3.78 | 10.5 | -4.14 | 0.0548 | -6.89 | 9.71
19 | CN[C@@H]1C[C@H]2O[C@@](C)([C@@H]1OC)n1c3ccccc3c3c4c(c5c6ccccc6n2c5c31)C(=O)N[C@H]4O [UCN-01] (drug 10000 nM) | 66.1 | 70.5 | 90.3 | 97.1 | 73.2 | 67.6 | 69.8 | 96.9 | 61.4 | 61.5 | 78 | 96 | 74.7 | 90.7 | 96
20 | CC(C)n1nc(-c2ccc3oc(N)nc3c2)c2c(N)ncnc21 [INK128] (drug 1000 nM) | 52.7 | 36.7 | 70.3 | 52.4 | 66 | 66.7 | 46.4 | 44.1 | 61.2 | 51.9 | 58.8 | 72.6 | 36.7 | 62.9 | 35.9
21 | CC[C@]1(O)C[C@@H]2CN(CCc3c([nH]c4ccccc34)[C@@](C(=O)OC)(c3cc4c(cc3OC)N(C)[C@H]3[C@@](O)(C(=O)OC)[C@H](OC(C)=O)[C@]5(CC)C=CCN6CC[C@]43[C@@H]65)C2)C1 [Vinblastine] (drug 1000 nM) | 30.2 | 57.8 | 51.4 | 57.6 | 35.9 | 14.7 | 22.2 | 91.8 | 24.6 | 34.4 | 55.2 | 88 | 43.3 | 87.4 | 19.6
22 | CC(=O)Nc1cccc(-n2c(=O)n(C3CC3)c(=O)c3c(Nc4ccc(I)cc4F)n(C)c(=O)c(C)c32)c1 (drug 250 nM) | 2.29 | 26.5 | 2.23 | 17.3 | 1.99 | -2.33 | 10.4 | -15.8 | -3.05 | 5.16 | 12.5 | 8.35 | -8.37 | 18.2 | 10.6
23 | CC(C)C[C@H](NC(=O)[C@H](CCc1ccccc1)NC(=O)CN1CCOCC1)C(=O)N[C@@H](Cc1ccccc1)C(=O)N[C@@H](CC(C)C)C(=O)[C@@]1(C)CO1 [Carfilzomib] (drug 1000 nM) | 80.2 | 96.8 | 91.8 | 96.5 | 75.9 | 86.2 | 91.1 | 93.7 | 76.9 | 85.7 | 96.3 | 97.8 | 79.9 | 96.2 | 92.7
24 | CN(C)CCN1C(=O)c2cccc3cc(N)cc(c23)C1=O [Amonafide] (drug 10000 nM) | 12.9 | 11.3 | 51.1 | 20.4 | 23.1 | 23.6 | -12 | -15.7 | 35.4 | 17.1 | 5.27 | -18.4 | -11.5 | -35.2 | 7.15
25 | CC(=O)[C@]1(O)Cc2c(O)c3c(c(O)c2[C@@H](O[C@H]2C[C@H](N)[C@H](O)[C@H](C)O2)C1)C(=O)c1ccccc1C3=O [Idarubicin] (drug 1000 nM) | 55.2 | 45.9 | 80.6 | 66.6 | 62.4 | 68.9 | 59.5 | 65 | 61.7 | 52.2 | 83.7 | 87.9 | 77.2 | 96.2 | 39.5
